Data as given in ChEMBL document CHEMBL3596138, “A double effect molecular switch leads to a novel potent negative allosteric modulator of metabotropic glutamate receptor 5” (Medchemcomm, 2014).

Legend:
[1] = target: Metabotropic glutamate receptor 5 (Rattus norvegicus, UniProt P31424); test: Negative allosteric modulator activity at rat mGlu5 receptor expressed in HEK293 cells assessed as effect on quisqualate-induced inositol phosphate accumulation incubated for 30 mins by florescence assay; assay type: functional, cell-based
[2] = target: Metabotropic glutamate receptor 4 (Rattus norvegicus, UniProt P31423); test: Positive allosteric modulator activity at rat mGlu4 receptor expressed in HEK293 cells assessed as effect on L-AP4-induced inositol phosphate accumulation incubated for 30 mins by florescence assay; assay type: functional, cell-based
[3] = target: Metabotropic glutamate receptor 5 (Rattus norvegicus) (UniProt P31424); test: Potency index, ratio of IC50 for MPEP to IC50 for test compound for negative allosteric modulator activity at rat mGlu5 receptor expressed in HEK293 cells; assay type: cell-based
[4] = target: Metabotropic glutamate receptor 4 (Rattus norvegicus) (UniProt P31423); conditions: HEK293
Description: Agonist activity at rat mGlu4 receptor expressed in HEK293 cells by inositol phosphate accumulation assay

[5] = target: Metabotropic glutamate receptor 5 (Rattus norvegicus) (UniProt P31424); conditions: HEK293
Description: Agonist activity at rat mGlu5 receptor expressed in HEK293 cells by inositol phosphate accumulation assay

Chain of Metabotropic glutamate receptor 5 (P31424 whole entry): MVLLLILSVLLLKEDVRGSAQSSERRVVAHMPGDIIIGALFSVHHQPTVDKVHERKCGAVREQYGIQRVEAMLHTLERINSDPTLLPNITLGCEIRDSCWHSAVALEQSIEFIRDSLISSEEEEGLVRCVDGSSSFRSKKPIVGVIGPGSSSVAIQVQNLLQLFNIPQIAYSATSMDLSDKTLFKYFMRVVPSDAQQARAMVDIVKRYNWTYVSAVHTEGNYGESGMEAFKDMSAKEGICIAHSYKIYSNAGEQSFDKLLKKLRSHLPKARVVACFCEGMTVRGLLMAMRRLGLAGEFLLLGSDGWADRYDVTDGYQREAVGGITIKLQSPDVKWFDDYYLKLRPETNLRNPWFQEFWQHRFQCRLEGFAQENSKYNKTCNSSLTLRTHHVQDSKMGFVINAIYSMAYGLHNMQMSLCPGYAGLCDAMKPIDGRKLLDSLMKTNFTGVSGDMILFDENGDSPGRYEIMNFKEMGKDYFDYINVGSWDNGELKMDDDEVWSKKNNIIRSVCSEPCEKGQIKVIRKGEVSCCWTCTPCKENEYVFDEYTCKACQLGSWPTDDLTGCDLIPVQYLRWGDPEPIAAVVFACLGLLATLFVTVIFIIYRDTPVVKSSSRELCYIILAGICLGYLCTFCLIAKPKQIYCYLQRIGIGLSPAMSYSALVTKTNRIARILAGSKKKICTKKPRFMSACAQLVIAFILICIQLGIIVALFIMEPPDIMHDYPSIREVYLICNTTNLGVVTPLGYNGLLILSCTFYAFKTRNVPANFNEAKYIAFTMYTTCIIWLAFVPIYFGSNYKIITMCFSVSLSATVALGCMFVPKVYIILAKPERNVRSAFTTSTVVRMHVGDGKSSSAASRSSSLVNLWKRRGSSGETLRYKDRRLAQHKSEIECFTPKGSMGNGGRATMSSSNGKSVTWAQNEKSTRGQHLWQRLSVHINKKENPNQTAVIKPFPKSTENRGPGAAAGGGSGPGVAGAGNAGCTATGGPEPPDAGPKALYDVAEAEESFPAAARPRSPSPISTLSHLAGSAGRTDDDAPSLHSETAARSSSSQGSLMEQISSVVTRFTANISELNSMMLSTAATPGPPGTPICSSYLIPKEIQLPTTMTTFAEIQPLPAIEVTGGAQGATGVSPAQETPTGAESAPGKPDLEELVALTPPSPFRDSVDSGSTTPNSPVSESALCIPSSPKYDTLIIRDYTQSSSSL
Chain of Metabotropic glutamate receptor 4 (P31423 whole entry): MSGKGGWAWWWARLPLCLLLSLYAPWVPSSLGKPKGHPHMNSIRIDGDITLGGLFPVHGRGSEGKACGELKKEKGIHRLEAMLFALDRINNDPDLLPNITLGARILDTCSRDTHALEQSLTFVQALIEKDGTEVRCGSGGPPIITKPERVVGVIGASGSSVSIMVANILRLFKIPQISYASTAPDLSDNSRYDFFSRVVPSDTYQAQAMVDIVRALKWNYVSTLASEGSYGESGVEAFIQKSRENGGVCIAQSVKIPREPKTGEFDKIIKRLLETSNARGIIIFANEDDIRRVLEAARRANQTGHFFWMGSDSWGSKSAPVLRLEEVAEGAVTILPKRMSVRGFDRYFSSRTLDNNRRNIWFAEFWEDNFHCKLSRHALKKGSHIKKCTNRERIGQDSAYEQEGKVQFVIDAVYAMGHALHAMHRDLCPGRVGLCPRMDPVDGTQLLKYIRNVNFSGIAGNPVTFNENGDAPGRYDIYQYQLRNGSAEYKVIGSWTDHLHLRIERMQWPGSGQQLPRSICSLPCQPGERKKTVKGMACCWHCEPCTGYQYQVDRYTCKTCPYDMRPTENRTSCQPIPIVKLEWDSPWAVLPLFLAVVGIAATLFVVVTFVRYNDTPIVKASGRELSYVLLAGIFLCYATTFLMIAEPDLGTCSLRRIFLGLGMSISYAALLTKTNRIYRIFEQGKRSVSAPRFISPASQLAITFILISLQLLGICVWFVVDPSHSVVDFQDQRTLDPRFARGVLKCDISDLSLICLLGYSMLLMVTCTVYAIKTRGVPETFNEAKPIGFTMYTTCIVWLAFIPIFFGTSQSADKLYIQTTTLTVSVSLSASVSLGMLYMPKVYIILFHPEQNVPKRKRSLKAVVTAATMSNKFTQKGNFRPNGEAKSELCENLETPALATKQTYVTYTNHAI
Chain of Metabotropic glutamate receptor 5 (Rattus norvegicus) (P31424 21-1203 limits assumed): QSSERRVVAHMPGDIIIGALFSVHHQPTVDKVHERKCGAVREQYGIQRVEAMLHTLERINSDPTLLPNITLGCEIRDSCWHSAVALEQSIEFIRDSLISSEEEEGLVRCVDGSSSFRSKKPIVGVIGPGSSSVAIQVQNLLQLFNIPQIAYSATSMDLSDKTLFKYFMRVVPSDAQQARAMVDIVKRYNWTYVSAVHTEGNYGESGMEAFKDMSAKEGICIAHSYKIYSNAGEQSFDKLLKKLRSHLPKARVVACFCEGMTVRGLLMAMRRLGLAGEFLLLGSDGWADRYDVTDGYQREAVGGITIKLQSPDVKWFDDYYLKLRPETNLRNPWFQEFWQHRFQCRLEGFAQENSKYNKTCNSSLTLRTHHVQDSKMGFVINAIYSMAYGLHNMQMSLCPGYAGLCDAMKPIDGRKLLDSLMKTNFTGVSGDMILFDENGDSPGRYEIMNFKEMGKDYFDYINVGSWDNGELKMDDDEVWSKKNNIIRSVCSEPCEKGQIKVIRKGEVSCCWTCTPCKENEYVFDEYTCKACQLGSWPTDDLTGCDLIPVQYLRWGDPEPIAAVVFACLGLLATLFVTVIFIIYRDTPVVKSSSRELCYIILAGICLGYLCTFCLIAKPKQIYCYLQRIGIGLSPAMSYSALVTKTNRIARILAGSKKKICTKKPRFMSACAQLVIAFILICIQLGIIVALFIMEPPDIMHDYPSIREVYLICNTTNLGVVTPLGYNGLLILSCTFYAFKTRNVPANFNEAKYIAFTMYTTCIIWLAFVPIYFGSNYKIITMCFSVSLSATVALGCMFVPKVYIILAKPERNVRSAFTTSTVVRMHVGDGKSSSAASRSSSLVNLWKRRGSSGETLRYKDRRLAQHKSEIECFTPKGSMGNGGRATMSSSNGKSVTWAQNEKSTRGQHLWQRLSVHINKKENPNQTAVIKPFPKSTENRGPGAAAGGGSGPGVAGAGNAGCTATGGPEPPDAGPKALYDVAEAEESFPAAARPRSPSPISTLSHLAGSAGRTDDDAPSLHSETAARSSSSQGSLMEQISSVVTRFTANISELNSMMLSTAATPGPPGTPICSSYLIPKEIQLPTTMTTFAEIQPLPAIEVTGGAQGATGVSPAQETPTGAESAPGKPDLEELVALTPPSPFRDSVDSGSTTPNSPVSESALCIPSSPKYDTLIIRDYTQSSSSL
Chain of Metabotropic glutamate receptor 4 (Rattus norvegicus) (P31423 whole entry): as the sequence (P31423 whole entry) above

Compound: COc1cc(NC(=O)c2ccccn2)ccc1NC(=O)c1ccccc1Cl
- IC50 ([1]; read-out: IC50): > 30000 nM
- EC50 [2]: 104 nM

Compound: COc1cc(NC(=O)c2ccccn2)ccc1C#Cc1ccccc1Cl
- IC50 ([1]; hek293): Not Active
- EC50 [2]: 4100 nM

Compound: COc1cc(C#Cc2ccccn2)ccc1NC(=O)c1ccccc1Cl
- IC50 ([1]; read-out: IC50): 24 nM
- EC50 [2]: > 30000 nM
- Ratio IC50 [3]: 4

Compound: N[C@@H](CCP(=O)(O)O)C(=O)O
- EC10 [4]: 10 nM

Compound: N[C@@H](Cn1oc(=O)[nH]c1=O)C(=O)O
- EC80 [5]: 100 nM
